Laboratory results as given in patent US20260124173A1, “THERAPEUTIC ALKALOID COMPOUNDS” (Sensorium Therapeutics, Inc., priority 2023, published 2026).
Read-outs that look alike come from different tables or passages of the source.

Assays:
[1] = in vivo; cited from earlier work
SERT = molecular target: T1, SERT (Homo sapiens, UniProt P31645); assay: SERT inhibition assay (Neurotransmitter Transportation Fluorescence assay, stable 5 HTT cells); assay type: cell-based
T1 construct: expressed in transfected cells
T1 sequence (P31645 whole entry, species assumed): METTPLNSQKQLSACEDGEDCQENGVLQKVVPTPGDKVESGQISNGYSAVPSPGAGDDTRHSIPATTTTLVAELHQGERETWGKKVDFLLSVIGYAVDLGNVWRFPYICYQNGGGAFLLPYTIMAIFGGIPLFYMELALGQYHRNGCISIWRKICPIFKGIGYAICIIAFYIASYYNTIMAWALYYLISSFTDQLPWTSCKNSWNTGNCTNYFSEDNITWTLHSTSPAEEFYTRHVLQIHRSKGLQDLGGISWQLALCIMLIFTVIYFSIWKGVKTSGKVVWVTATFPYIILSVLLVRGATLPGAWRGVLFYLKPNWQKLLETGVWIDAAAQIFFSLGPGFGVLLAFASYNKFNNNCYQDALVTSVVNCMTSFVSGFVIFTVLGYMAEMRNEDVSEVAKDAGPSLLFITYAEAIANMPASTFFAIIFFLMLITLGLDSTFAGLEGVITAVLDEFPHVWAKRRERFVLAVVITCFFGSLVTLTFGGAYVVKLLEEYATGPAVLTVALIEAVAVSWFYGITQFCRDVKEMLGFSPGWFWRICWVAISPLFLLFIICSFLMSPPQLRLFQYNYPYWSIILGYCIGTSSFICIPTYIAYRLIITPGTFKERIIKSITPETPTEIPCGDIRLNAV
Procedure: SERT inhibition can be measured using a Neurotransmitter Transportation Fluorescence assay. Briefly, stable 5 HTT cells were prepared in a 384 microwell plate. Compounds were prepared in assay buffer (20 mM HEPES, 0.1% BSA). The compounds were added to the plated cells and incubated for 30 minutes at 37° C. 25 μL of dye solution (Molecular Devices Neurotransmitter Transporter Uptake Assay Kit) is added per well and incubated for 30 minutes at 37° C. The plates are then read on a plate reader.

[2] = assay type: in vitro ADME, dog
Procedure: (§1) A master solution was prepared according to the Table B2 below.
(§2) Add 222.5 μL of master solution and 25 μL of 10 mM NADPH solution to the incubation plates. Pre-warm for 10 min. The reaction was started with the addition of 2.5 μL of 100 μM control compound or test compound solutions. Verapamil, Midazolam and Testosterone were used as positive control in this study. The final concentration of control compounds and test compounds was 1 μM. Aliquots of 25 μL were taken from the reaction solution at 0.5, 5, 15, 30, 45 and 60 minutes. The reaction was stopped by the addition of 5 volumes of cold acetonitrile with IS (100 nM alprazolam, 200 nM caffeine and 100 nM tolbutamide). Samples were centrifuged at 3, 220 g for 30 minutes. Aliquot of 100 μL of the supernatant was mixed with 100 μL of ultra-pure H2O and then used for LC-MS/MS analysis.
(§3) All calculations were carried out using Microsoft Excel. Peak areas were determined from extracted ion chromatograms. The slope value, k, was determined by linear regression of the natural logarithm of the remaining percentage of the parent drug vs. incubation time curve. The in vitro half-life (in vitro t1/2) was determined from the slope value:
(§4) Conversion of the in vitro t1/2 (min) into the in vitro intrinsic clearance (in vitro CLint, in uL/min/mg protein) was done using the following equation (mean of duplicate determinations): […]

[3] = Intestinal S9 metabolic stability, human; assay type: in vitro ADME
Procedure: as §1, §2, §3, §4
The metabolic stability of Compound 243 was tested in human, monkey, dog and rat (2 replicate measurement). For comparison, verapamil was tested in human and monkey (2 replicates), midazolam was tested in dog (2 replicates), and testosterone was tested in rat (2 replicates).

[4] = Intestinal S9 metabolic stability, rat; assay type: in vitro ADME
Procedure: as §1, §2, §3, §4

## COc1ccc([C@@]23CCC(=O)C[C@@H]2N(C)CC3)cc1OC [Compound 001, (−)-Mesembrine]
[1]
  half-life in plasma: less than 2 hours

## COc1ccc([C@@]23CC=C(C)C[C@@H]2N(C)CC3)cc1OC [Compound 242, (3aS,7aS)-3a-(3,4-dimethoxyphenyl)-1,6-dimethyl-2,3,3a,4,7,7a-hexahydro-1H-indole]
SERT; Table B1
  IC50: < 50 nM

## COc1ccc([C@@]23CCC(C)=C[C@@H]2N(C)CC3)cc1OC [Compound 243, (3aS,7aS)-3a-(3,4-dimethoxyphenyl)-1,6-dimethyl-2,3,3a,4,5,7a-hexahydro-1H-indole]
[2]
  median half-life, times greater than the half-life of midazolam: more than 168 times
[2]; dog, 1 µM
  median CLint (micrograms/min/mg protein), times greater for midazolam than Compound 243: more than 164 times
[3]
  median half-life, times greater than verapamil: 33 times
[3]; human, 1 µM
  median CLint (micrograms/min/mg protein), times greater for verapamil than Compound 243: more than 23 times
[3]; human, s9
  half-life at 1 µM: > 24 h
[4]; 1 µM
  median CLint (micrograms/min/mg protein), times greater for testosterone than Compound 243: about 30 times
[4]; Compound 243 versus testosterone
  median half-life, times greater than the half-life of testosterone: about 30 times
SERT; Table B1
  IC50: < 50 nM

## COc1ccc([C@@]23CC=C(C)C[C@@H]2N(C)CC3)cc1OC [drawing 203]
SERT
  IC50: < 50 nM

## COc1ccc([C@@]23CCC(C)=C[C@@H]2N(C)CC3)cc1OC [drawing 204]
SERT
  IC50: < 50 nM

## COc1ccc([C@@]23CCC(C)=C[C@@H]2N(C)CC3)cc1OC [drawing 205]
SERT
  IC50: < 50 nM
